{"source": "patent US11464802B2", "about": "“3-substituted piperidine compounds for Cbl-b inhibition, and use thereof” (Nurix Therapeutics, Inc., priority 2019, dated 2022)", "key": {"[1]": {"tested_on": "primary human total T-cells", "experiment": "Primary human total T-cell activation: IL-2 secretion, Biological Example 2", "assay_type": "cell-based", "conditions": "48 hours, fold change over baseline; for fold induction at 1 µM: inhibitor 1 μM"}, "[2]": {"tested_on": "primary human total T-cells", "experiment": "Primary human total T-cell activation: CD25 surface staining, Biological Example 2", "assay_type": "cell-based", "conditions": "48 hours, fold change over baseline; for fold induction at 1 µM: inhibitor 1 μM"}, "[3]": {"conditions": "anti-CD3/anti-CD28 co-stimulation, inhibitor 0.3 μM"}}, "data": [{"smiles": "C[C@@H]1CN(Cc2cc3c(c(C(F)(F)F)c2)CN(c2cccc(C4(Cc5nncn5C)COC4)c2)C3=O)CCC1(F)F", "note": "[Compound 8, (R)-6-((4,4-difluoro-3-methylpiperidin-1-yl)methyl)-2-(3-(3-((4-methyl-4H-1,2,4-triazol-3-yl)methyl)oxetan-3-yl)phenyl)-4-(trifluoromethyl)isoindolin-1-one]", "values": [{"measurement": "fold induction at 0.3 µM", "setting": "[1]; [3]", "value": "> 15"}, {"measurement": "fold induction at 1 µM", "setting": "[1]; anti-CD3/anti-CD28 co-stimulation, read-out: IL-2 secretion CD3/CD28 1 μM", "value": "> 15"}, {"measurement": "fold induction at 1 µM", "setting": "[1]; anti-CD3 alone, read-out: IL-2 secretion CD3 1 μM", "value": "0.34 to 0.66"}, {"measurement": "fold induction at 3 µM", "setting": "[1]; anti-CD3 alone, inhibitor 3 μM", "value": "0.34 to 0.66"}, {"measurement": "fold induction at 0.3 µM", "setting": "[2]; [3]", "value": "1.25 to 1.39"}, {"measurement": "fold induction at 1 µM", "setting": "[2]; anti-CD3/anti-CD28 co-stimulation, read-out: CD25 staining CD3/CD28 1 μM", "value": "1.25 to 1.39"}, {"measurement": "fold induction at 1 µM", "setting": "[2]; anti-CD3 alone, read-out: CD25 staining CD3 1 μM", "value": "> 1.14"}, {"measurement": "fold induction at 3 µM", "setting": "[2]; anti-CD3 alone, inhibitor 3 μM", "value": "> 1.14"}]}]}
